Reference: patent US9422285B2, “Substituted pyrazolo[1,5-A]-pyridine-3-carboxamides and use thereof” (Bayer Pharma Aktiengesellschaft, priority 2014, dated 2016)
Where a name gives a salt, the structure may show the parent alone.

Biological target: T1, recombinant guanylate cyclase reporter cell line (Rattus norvegicus, UniProt P19686+P20595)
T1 construct: expressed in transfected cells
T1 sequence (P19686 1-690): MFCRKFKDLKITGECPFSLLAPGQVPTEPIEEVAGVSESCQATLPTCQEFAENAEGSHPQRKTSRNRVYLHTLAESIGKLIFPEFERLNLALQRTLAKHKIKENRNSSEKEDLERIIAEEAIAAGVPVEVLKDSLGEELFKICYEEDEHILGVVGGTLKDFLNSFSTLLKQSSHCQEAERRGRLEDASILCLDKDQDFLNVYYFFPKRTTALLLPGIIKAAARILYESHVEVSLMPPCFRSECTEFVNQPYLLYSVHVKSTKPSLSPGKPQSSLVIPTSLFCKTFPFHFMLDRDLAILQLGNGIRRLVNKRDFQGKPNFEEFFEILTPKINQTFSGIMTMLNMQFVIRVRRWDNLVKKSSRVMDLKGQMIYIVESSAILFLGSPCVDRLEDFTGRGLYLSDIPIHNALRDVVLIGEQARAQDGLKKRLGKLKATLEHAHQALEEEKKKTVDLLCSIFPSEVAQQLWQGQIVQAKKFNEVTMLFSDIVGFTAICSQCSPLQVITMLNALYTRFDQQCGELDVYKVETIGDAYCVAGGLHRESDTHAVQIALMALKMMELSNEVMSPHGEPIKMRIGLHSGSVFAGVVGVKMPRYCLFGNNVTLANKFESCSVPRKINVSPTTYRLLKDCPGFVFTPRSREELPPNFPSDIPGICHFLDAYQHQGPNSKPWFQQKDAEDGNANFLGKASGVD
T1 sequence (P20595 1-619): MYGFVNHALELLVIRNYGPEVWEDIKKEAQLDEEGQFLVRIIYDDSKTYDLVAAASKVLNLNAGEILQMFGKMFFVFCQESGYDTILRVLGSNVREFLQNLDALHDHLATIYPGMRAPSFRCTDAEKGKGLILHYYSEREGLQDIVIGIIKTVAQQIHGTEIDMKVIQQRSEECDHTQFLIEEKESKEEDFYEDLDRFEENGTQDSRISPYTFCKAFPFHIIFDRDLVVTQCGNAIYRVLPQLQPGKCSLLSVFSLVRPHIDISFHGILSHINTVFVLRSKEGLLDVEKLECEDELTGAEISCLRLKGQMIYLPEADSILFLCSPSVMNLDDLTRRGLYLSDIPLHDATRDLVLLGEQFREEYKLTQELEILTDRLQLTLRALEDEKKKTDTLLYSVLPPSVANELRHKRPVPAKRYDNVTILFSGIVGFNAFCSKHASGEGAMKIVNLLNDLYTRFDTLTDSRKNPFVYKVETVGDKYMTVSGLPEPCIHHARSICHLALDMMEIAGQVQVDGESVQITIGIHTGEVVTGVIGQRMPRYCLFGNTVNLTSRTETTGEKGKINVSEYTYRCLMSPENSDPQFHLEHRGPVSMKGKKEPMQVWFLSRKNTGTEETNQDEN
Experiment: Effect on a recombinant guanylate cyclase reporter cell line (B-2)
Type: cell-based
Conditions: in some cases mean values for individual determinations
Procedure: B-2. Effect on a Recombinant Guanylate Cyclase Reporter Cell Line
The cellular effect of the inventive compounds is determined using a recombinant guanylate cyclase reporter cell line, as described in F. Wunder et al., Anal. Biochem. 339, 104-112 (2005).
Representative MEC values (MEC=minimum effective concentration) for the inventive compounds are shown in the table below (in some cases as mean values for individual determinations): […]

| Compound | MEC (minimum effective concentration) [µM] |
| --- | --- |
| Cc1cc(OCc2c(F)cccc2F)n2nc(C)c(C(=O)NCCCCCC#N)c2c1 [Example 63, N-(5-Cyanopentyl)-7-[(2,6-difluorobenzyl)oxy]-2,5-dimethylpyrazolo[1,5-a]pyridine-3-carboxamide] | 1.0 |
| Cc1cc(OCc2c(F)cccc2F)n2nc(C)c(C(=O)NC3CCOc4c(Cl)cccc43)c2c1 (racemic) [Example 147, rac-N-(8-Chloro-3,4-dihydro-2H-chromen-4-yl)-7-[(2,6-difluorobenzyl)oxy]-2,5-dimethylpyrazolo[1,5-a]pyridine-3-carboxamide] | 0.3 |
| Cc1cc(OCc2c(F)cccc2F)n2nc(C)c(C(=O)N[C@H]3c4ccccc4C[C@H]3CO)c2c1 (relative stereo) [Example 143, rel-7-[(2,6-Difluorobenzyl)oxy]-N-[(1R,2R)-2-(hydroxymethyl)-2,3-dihydro-1H-inden-1-yl]-2,5-dimethylpyrazolo[1,5-a]pyridine-3-carboxamide] | 0.3 |
| Cc1cc(OCc2c(F)ccc(F)c2F)n2nc(C)c(C(=O)Nc3cnn(CC(F)(F)F)c3)c2c1 [Example 17, 2,5-Dimethyl-7-[(2,3,6-trifluorobenzyl)oxy]-N-[1-(2,2,2-trifluoroethyl)-1H-pyrazol-4-yl]pyrazolo[1,5-a]pyridine-3-carboxamide] | 0.3 |
| Cc1cc(OCc2c(F)cccc2F)n2nc(C)c(C(=O)NC3(c4ccc(F)c(F)c4)CC3)c2c1 [Example 90, 7-[(2,6-Difluorobenzyl)oxy]-N[1-(3,4-difluorophenyl)cyclopropyl]-2,5-dimethylpyrazolo[1,5-a]pyridine-3-carboxamide] | 0.1 |
| CCCC(C)(N)CNC(=O)c1c(C)nn2c(OCc3c(F)cccc3F)cc(OC)cc12 (racemic) [Example 171, rac-N-(2-Amino-2-methylpentyl)-7-[(2,6-difluorobenzyl)oxy]-5-methoxy-2-methylpyrazolo[1,5-a]pyridine-3-carboxamide] | 1.0 |
| Cc1cc(OCc2c(F)ccc(F)c2F)n2nc(C)c(C(=O)NC3c4ccccc4CC3O)c2c1 (stereo not drawn) [Example 6] | 1.0 |
| Cc1cc(OCc2c(F)cccc2F)n2nc(C)c(C(=O)NN3CCOCC3)c2c1 [Example 135, 7-[(2,6-Difluorobenzyl)oxy]-2,5-dimethyl-N-(morpholin-4-yl)pyrazolo[1,5-a]pyridine-3-carboxamide] | 3.0 |
| Cc1cc(OCc2c(F)ccc(F)c2F)n2nc(C)c(C(=O)NC3(c4ccc(Cl)cc4)CCCC3)c2c1 [Example 31, N-[1-(4-Chlorophenyl)cyclopentyl]-2,5-dimethyl-7-[(2,3,6-trifluorobenzyl)oxy]pyrazolo[1,5-a]pyridine-3-carboxamide] | 1.0 |
| Cc1cc(OCc2c(F)cccc2F)n2nc(C)c(C(=O)NCC(=O)NC3CC3)c2c1 [Example 89, N-[2-(Cyclopropylamino)-2-oxoethyl]-7-[(2,6-difluorobenzyl)oxy]-2,5-dimethylpyrazolo[1,5-a]pyridine-3-carboxamide] | 3.0 |
| Cc1cc(OCc2c(F)cccc2F)n2nc(C)c(C(=O)NCC(C)(N)CCF)c2c1 (racemic) [Example 48, rac-N-(2-Amino-4-fluoro-2-methylbutyl)-7-[(2,6-difluorobenzyl)oxy]-2,5-dimethylpyrazolo[1,5-a]pyridine-3-carboxamide] | 0.3 |
| Cc1cc(OCc2c(F)ccc(F)c2F)n2nc(C)c(C(=O)NC(C)COCC(F)(F)F)c2c1 (racemic) [Example 24, rac-2,5-Dimethyl-7-[(2,3,6-trifluorobenzyl)oxy]-N-[1-(2,2,2-trifluoroethoxy)propan-2-yl]pyrazolo[1,5-a]pyridine-3-carboxamide] | 0.3 |
| Cc1cc(OCc2c(F)cccc2F)n2nc(C)c(C(=O)N[C@@H]3COC[C@@H]3N)c2c1 (relative stereo) [Example 69, rel-N-[(3R,4S)-4-Aminotetrahydrofuran-3-yl]-7-[(2,6-difluorobenzyl)oxy]-2,5-dimethylpyrazolo[1,5-a]pyridine-3-carboxamide] | 10 |
| Cc1cc(OCc2c(F)cccc2F)n2nc(C)c(C(=O)NCCN3CCN(C)CC3)c2c1 [Example 93, 7-[(2,6-Difluorobenzyl)oxy]-2,5-dimethyl-N-[2-(4-methylpiperazin-1-yl)ethyl]pyrazolo[1,5-a]pyridine-3-carboxamide] | 10 |
| CC=CCC(N)CNC(=O)c1c(C)nn2c(OCc3c(F)cccc3F)cc(C)cc12 (racemic) [Example 115, rac-N-[2-Aminohex-4-en-1-yl]-7-[(2,6-difluorobenzyl)oxy]-2,5-dimethylpyrazolo[1,5-a]pyridine-3-carboxamide] | 0.3 |
| Cc1cc(OCc2c(F)cccc2F)n2nc(C)c(C(=O)NCC(C)(N)CC(F)F)c2c1 (single isomer, unassigned) [Example 47, ent-N-(2-Amino-4,4-difluoro-2-methylbutyl)-7-[(2,6-difluorobenzyl)oxy]-2,5-dimethylpyrazolo[1,5-a]pyridine-3-carboxamide] | 1.0 |
| Cc1cc(OCc2c(F)cccc2F)n2nc(C)c(C(=O)NC3CC[C@@H]4NCC[C@H]34)c2c1 (relative stereo) [Example 122, rel-7-[(2,6-Difluorobenzyl)oxy]-2,5-dimethyl-N-[(3aR,6aR)-octahydrocyclopenta[b]pyrrol-4-yl]pyrazolo[1,5-a]pyridine-3-carboxamide] | 10 |
| Cc1cc(OCc2c(F)cccc2F)n2nc(C)c(C(=O)NCC3CCC(C#N)CC3)c2c1 (stereo not drawn) [Example 62, N-[(4-Cyanocyclohexyl)methyl]-7-[(2,6-difluorobenzyl)oxy]-2,5-dimethylpyrazolo[1,5-a]pyridine-3-carboxamide] | 3.0 |
| Cc1cc(OCc2c(F)cccc2F)n2nc(C)c(C(=O)N[C@H]3c4ccccc4C[C@H]3O)c2c1 [Example 71, 7-[(2,6-Difluorobenzyl)oxy]-N-[(1S,2R)-2-hydroxy-2,3-dihydro-1H-inden-1-yl]-2,5-dimethylpyrazolo[1,5-a]pyridine-3-carboxamide trifluoroacetate] | 0.3 |
| Cc1cc(OCc2c(F)cccc2F)n2nc(C)c(C(=O)NCC(C)(C)N)c2c1 [Example 1, N-(2-Amino-2-methylpropyl)-7-[(2,6-difluorobenzyl)oxy]-2,5-dimethylpyrazolo[1,5-a]pyridine-3-carboxamide formate] | 2 |
| Cc1cc(OCc2c(F)ccc(F)c2F)n2nc(C)c(C(=O)NCCN(C)C)c2c1 [Example 12, N-[2-(Dimethylamino)ethyl]-2,5-dimethyl-7-[(2,3,6-trifluorobenzyl)oxy]pyrazolo[1,5-a]pyridine-3-carboxamide] | 3.0 |
| Cc1cc(OCc2c(F)cccc2F)n2nc(C)c(C(=O)NCC(C)(N)CCF)c2c1 (single isomer, unassigned) [Example 49, ent-N-(2-Amino-4-fluoro-2-methylbutyl)-7-[(2,6-difluorobenzyl)oxy]-2,5-dimethylpyrazolo[1,5-a]pyridine-3-carboxamide] | 0.3 |
| Cc1cc(OCc2c(F)cccc2F)n2nc(C)c(C(=O)NCC(C)(N)CC(C)C)c2c1 (racemic) [Example 92, rac-N-(2-Amino-2,4-dimethylpentyl)-7-[(2,6-difluorobenzyl)oxy]-2,5-dimethylpyrazolo[1,5-a]pyridine-3-carboxamide] | 0.3 |
| Cc1cc(OCc2c(F)cccc2F)n2nc(C)c(C(=O)Nc3ccc(N4CCNCC4)c(C(F)(F)F)c3)c2c1 [Example 125, 7-[(2,6-Difluorobenzyl)oxy]-2,5-dimethyl-N-[4-(piperazin-l-yl)-3-(trifluoromethyl)phenyl]pyrazolo[1,5-a]pyridine-3-carboxamide] | 3.0 |
